Experimental findings from BindingDB's records for doi:10.1074/jbc.M113.510974 (Albert Einstein College of Medicine, 2013) are described below.

For assay [1], the target named is Sulfotransferase 1A1 (Homo sapiens, UniProt P50225). In words: Amoxapine and Protriptyline Inhibition Assay. As to conditions: pH 7.5; 2 °C. How it is done: (§1) Sulfation of PnP was monitored optically at λ = 415 nm (ε415 = 10.6 mM-1 cm-1 at pH 7.5 [Whittemore et al., Biochemistry, 24:2477-2482).
Assay [2] concerns the target T1, Sulfotransferase 2A1 (Homo sapiens, UniProt Q06520).
T1 sequence (Q06520 whole entry): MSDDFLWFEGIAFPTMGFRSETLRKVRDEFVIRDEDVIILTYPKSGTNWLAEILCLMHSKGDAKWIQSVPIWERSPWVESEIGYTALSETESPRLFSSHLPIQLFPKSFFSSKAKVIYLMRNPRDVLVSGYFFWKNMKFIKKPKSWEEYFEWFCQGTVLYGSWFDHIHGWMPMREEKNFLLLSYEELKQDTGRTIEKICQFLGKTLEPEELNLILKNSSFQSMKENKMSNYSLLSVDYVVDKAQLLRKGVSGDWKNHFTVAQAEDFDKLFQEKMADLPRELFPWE
In words: Amoxapine and Protriptyline Inhibition Assay. As to conditions: pH 7.5; 2 °C. As for the experimental part: as §1

Chain of Sulfotransferase 1A1 (P50225 whole entry): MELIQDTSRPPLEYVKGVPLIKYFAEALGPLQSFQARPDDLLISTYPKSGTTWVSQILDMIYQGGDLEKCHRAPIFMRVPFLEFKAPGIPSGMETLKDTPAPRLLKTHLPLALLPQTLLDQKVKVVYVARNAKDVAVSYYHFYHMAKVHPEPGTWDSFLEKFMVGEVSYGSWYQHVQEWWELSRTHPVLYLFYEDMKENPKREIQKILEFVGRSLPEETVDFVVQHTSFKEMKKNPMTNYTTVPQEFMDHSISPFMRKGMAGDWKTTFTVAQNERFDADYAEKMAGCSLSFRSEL

As usually defined, the Ki is a measure of affinity in units of concentration, obtained from inhibition or displacement. The low end stands for a stronger hold on the target, the high end for a looser hold on the target. With `Clc1ccc2c(c1)C(N1CCNCC1)=Nc1ccccc1O2`, the Ki in assay [1] was found to be 35 µM; in assay [2], 125 µM.
`CNCCCC1c2ccccc2C=Cc2ccccc21` [3-(5H-dibenzo[a,d][7]annulen-5-yl)-N-methylpropan-1-amine]: the figures for the inhibition constant (Ki) in assay [1] and in assay [2] were 55 µM and 76 µM, respectively.
